Data published in US20120029018A1, “9-SUBSTITUTED PHENANTHRENE BASED TYLOPHORINE DERIVATIVES” (priority 2008, published 2012).
Values after ≈ are worked out from the molar mass of the structure shown. Values joined by “and” are separate entries in the source; they are usually repeats but may differ in a detail not shown here. Identical values can stand only once.

Columns and labels:
KB (nasopharyngeal) = test: In vitro anticancer activity against KB cells; format: cell-based, human; conditions: for IC50 KB: KB cells
[1] = tested on: KB-VIN (an MDR KB subline); test: In vitro anticancer activity against KB-VIN cells; format: cell-based, human; conditions: for IC50 KBvin: KBvin cells
A549 (lung) = test: In vitro anticancer activity against A549 cells; format: cell-based, human; conditions: for IC50 A549: A549 cells
DU-145 (prostate) = test: In vitro anticancer activity against DU-145 cells; format: cell-based, human; conditions: for IC50 DU145: DU145 cells
[2] = tested on: panel of human tumor cell lines including KB, A549, DU-145 and KB-VIN; test: In vitro anticancer activity, panel as a whole; format: cell-based; conditions: for IC50 values across the panel: summary of Table 1
CL1-0 = test: Cell cycle distribution in CL1-0 cells; format: cell-based
From the text: (§1) The reciprocal recruitment of RelA and RelB on COX-2 promoter region led to the downregulation of transcriptional activity. […] PBT-1 may be a good drug candidate for anticancer chemotherapy.

lung cancer cells = test: Colony formation of lung cancer cells in vitro; format: cell-based; conditions: FIG. 1, listed as PBT-1
From the text: as §1

[3] = tested on: Akt activation, RelA (p65), NF-κB target genes; test: Akt / NF-κB signaling (gels, FIG. 2); format: cell-based
From the text: as §1

[4] = tested on: apoptosis pathway, MAPK signaling, NF-κB pathway, focal adhesion; test: DNA microarray and pathway analysis; format: cell-based
From the text: as §1

[5] = tested on: cyclin B1 and cyclin D1 protein; test: Cyclin protein levels; format: cell-based
From the text: as §1

[6] = tested on: panel of human tumor cell lines including KB, A549, DU-145 and KB-VIN; conditions: four human cancer cell lines including MDR KB-VIN; previous research (refs 6,7); read-out: IC50 against four types of human cancer cell lines; cited from earlier work

## COc1ccc2c(CN3CCC(=O)CC3)cc3cc4c(cc3c2c1)OCO4 [Compound 15]
KB (nasopharyngeal)
  IC50 KB: 0.04 µg/mL (≈ 0.11 µM)
[1]
  IC50 KBvin: 0.05 µg/mL (≈ 0.138 µM)
A549 (lung)
  IC50 A549: 0.04 µg/mL (≈ 0.11 µM)
DU-145 (prostate)
  IC50 DU145: 0.04 µg/mL (≈ 0.11 µM)
[2]
  IC50 values across the panel: ~0.04 µg/mL (≈ 0.11 µM)

## COc1ccc2c(CN3CCCC(CNC(=O)OC(C)(C)C)C3)cc3cc4c(cc3c2c1)OCO4 (racemic) [Compound 8]
KB (nasopharyngeal)
  IC50 KB: 0.53 µg/mL (≈ 1.11 µM)
[1]
  IC50 KBvin: 0.62 µg/mL (≈ 1.3 µM)
A549 (lung)
  IC50 A549: 0.57 µg/mL (≈ 1.19 µM)
DU-145 (prostate)
  IC50 DU145: 0.52 µg/mL (≈ 1.09 µM)

## COc1ccc2c(CN3CCCC(N)C3)cc3cc4c(cc3c2c1)OCO4.Cl.Cl (stereo not drawn) [Compound 10]
KB (nasopharyngeal)
  IC50 KB: 3.80 µg/mL
[1]
  IC50 KBvin: 3.88 µg/mL
A549 (lung)
  IC50 A549: 3.85 µg/mL
DU-145 (prostate)
  IC50 DU145: 4.20 µg/mL

## COc1ccc2c(CN3CCC(CN)CC3)cc3cc4c(cc3c2c1)OCO4.Cl.Cl [Compound 20]
KB (nasopharyngeal)
  IC50 KB: 0.12 µg/mL
A549 (lung)
  IC50 A549: 0.22 µg/mL
DU-145 (prostate)
  IC50 DU145: 0.16 µg/mL

## COc1ccc2c(CN3CCC(CNC(=O)OC(C)(C)C)CC3)cc3cc4c(cc3c2c1)OCO4 [Compound 25]
KB (nasopharyngeal)
  IC50 KB: 0.43 µg/mL (≈ 0.898 µM)
A549 (lung)
  IC50 A549: 0.27 µg/mL (≈ 0.564 µM)
DU-145 (prostate)
  IC50 DU145: 0.40 µg/mL (≈ 0.836 µM)

## COc1ccc2c(CN3CCC(NC(=O)OC(C)(C)C)CC3)cc3cc4c(cc3c2c1)OCO4 [Compound 11]
KB (nasopharyngeal)
  IC50 KB: 0.40 µg/mL (≈ 0.861 µM)
[1]
  IC50 KBvin: 0.49 µg/mL (≈ 1.05 µM)
A549 (lung)
  IC50 A549: 0.41 µg/mL (≈ 0.883 µM)
DU-145 (prostate)
  IC50 DU145: 0.43 µg/mL (≈ 0.926 µM)

## COc1ccc2c(CN3CCCC(=O)C3)cc3cc4c(cc3c2c1)OCO4 [Compound 22]
KB (nasopharyngeal)
  IC50 KB: 0.30 µg/mL (≈ 0.826 µM)
A549 (lung)
  IC50 A549: 0.29 µg/mL (≈ 0.798 µM)
DU-145 (prostate)
  IC50 DU145: 0.39 µg/mL (≈ 1.07 µM)
[2]; vs compound 15
  decrease of inhibitory potency, oxo group at C-3′ (15 vs. 22): about 8 fold

## COc1ccc2c(CN3CCC(NS(C)(=O)=O)CC3)cc3cc4c(cc3c2c1)OCO4 [Compound 17]
KB (nasopharyngeal)
  IC50 KB: 0.29 µg/mL (≈ 0.655 µM)
[1]
  IC50 KBvin: 0.48 µg/mL (≈ 1.08 µM)
A549 (lung)
  IC50 A549: 0.45 µg/mL (≈ 1.02 µM)
DU-145 (prostate)
  IC50 DU145: 0.45 µg/mL (≈ 1.02 µM)

## COc1ccc2c(CN3CCCC(CO)C3)cc3cc4c(cc3c2c1)OCO4 (stereo not drawn) [Compound 23]
KB (nasopharyngeal)
  IC50 KB: 0.07 µg/mL (≈ 0.184 µM)
A549 (lung)
  IC50 A549: 0.05 µg/mL (≈ 0.132 µM)
DU-145 (prostate)
  IC50 DU145: 0.06 µg/mL (≈ 0.158 µM)

## COC(=O)C1CCCN(Cc2cc3cc4c(cc3c3cc(OC)ccc23)OCO4)C1 (stereo not drawn) [Compound 18]
KB (nasopharyngeal)
  IC50 KB: 0.79 µg/mL (≈ 1.94 µM)
[1]
  IC50 KBvin: 1.24 µg/mL (≈ 3.04 µM)
A549 (lung)
  IC50 A549: 0.76 µg/mL (≈ 1.87 µM)
DU-145 (prostate)
  IC50 DU145: 1.09 µg/mL (≈ 2.68 µM)

## COC(=O)C1CN(Cc2cc3cc4c(cc3c3cc(OC)ccc23)OCO4)CCC1=O (racemic) [Compound 16]
KB (nasopharyngeal)
  IC50 KB: 0.53 µg/mL (≈ 1.26 µM)
[1]
  IC50 KBvin: 0.83 µg/mL (≈ 1.97 µM)
A549 (lung)
  IC50 A549: 0.58 µg/mL (≈ 1.38 µM)
DU-145 (prostate)
  IC50 DU145: 0.78 µg/mL (≈ 1.85 µM)

## COc1ccc2c(CN3CCCC(NC(=O)OC(C)(C)C)C3)cc3cc4c(cc3c2c1)OCO4 (stereo not drawn) [Compound 9]
KB (nasopharyngeal)
  IC50 KB: 6.43 µg/mL (≈ 13.8 µM)
[1]
  IC50 KBvin: 8.40 µg/mL (≈ 18.1 µM)
A549 (lung)
  IC50 A549: 6.77 µg/mL (≈ 14.6 µM)
DU-145 (prostate)
  IC50 DU145: 8.00 µg/mL (≈ 17.2 µM)

## COc1ccc2c(CN3CCC(CO)CC3)cc3cc4c(cc3c2c1)OCO4 [Compound 1]
KB (nasopharyngeal); Homo sapiens, KB, read-out: IC50 KB
  IC50: 0.07 µg/mL (≈ 0.184 µM)
[1]; Homo sapiens, KBVIN, read-out: IC50 KBvin
  IC50: 0.08 µg/mL (≈ 0.211 µM)
A549 (lung); Homo sapiens, A549, read-out: IC50 A549
  IC50: 0.07 µg/mL (≈ 0.184 µM)
DU-145 (prostate); Homo sapiens, DU-145, read-out: IC50 DU145
  IC50: 0.09 µg/mL (≈ 0.237 µM)
CL1-0; CL1-0, 2 Hr.
  G1 (%): 53.7%
  G2/M (%): 25.4%
  S (%): 15.1%
CL1-0; CL1-0, 6 Hr.
  G1 (%): 52.5%
  G2/M (%): 24.3%
  S (%): 15.8%
CL1-0; CL1-0, 12 Hr.
  G1 (%): 41.7%
  G2/M (%): 27.0%
  S (%): 23.9%
CL1-0; CL1-0, 16 Hr.
  G1 (%): 20.4%
  G2/M (%): 33.6%
  S (%): 34.1%
CL1-0; CL1-0, 24 Hr.
  G1 (%): 16.6%
  G2/M (%): 20.9%
  S (%): 43.8%
CL1-0; Table 2
  cell cycle arrest and apoptosis: induced cell cycle G2/M arrest and apoptosis
Lung cancer cells
  colony formation of lung cancer cells: significantly suppressed colony formation
[3]
  Akt activation: suppress Akt activation
  expressions of NF-κB target genes: downregulate the expressions of NF-κB target genes
[3]; via IκB kinase-α
  RelA (p65) degradation: accelerate RelA (p65) degradation
[4]
  pathways activated: activated the apoptosis pathway and mitogen-activated protein kinase signaling
  pathways suppressed: suppressed the nuclear factor kappaB (NF-κB) pathway and focal adhesion
[5]
  cyclin B1 and cyclin D1 protein level: accumulation in dose- and time-dependent manners
[6]
  IC50: ~80 nM

## COc1ccc2c(CN3CCC(C#N)CC3)cc3cc4c(cc3c2c1)OCO4 [Compound 14]
KB (nasopharyngeal)
  IC50 KB: 0.42 µg/mL (≈ 1.12 µM)
[1]
  IC50 KBvin: 0.43 µg/mL (≈ 1.15 µM)
A549 (lung)
  IC50 A549: 0.33 µg/mL (≈ 0.881 µM)
DU-145 (prostate)
  IC50 DU145: 0.41 µg/mL (≈ 1.09 µM)

## COc1ccc2c(CN3CCCC(CO)C3)cc3cc4c(cc3c2c1)OCO4 (stereo not drawn) [Compound 24]
KB (nasopharyngeal)
  IC50 KB: 0.07 µg/mL (≈ 0.184 µM)
A549 (lung)
  IC50 A549: 0.07 µg/mL (≈ 0.184 µM)
DU-145 (prostate)
  IC50 DU145: 0.10 µg/mL (≈ 0.264 µM)

## COc1ccc2c(CN3CCC(O)CC3)cc3cc4c(cc3c2c1)OCO4 [Compound 21]
KB (nasopharyngeal)
  IC50 KB: 0.03 µg/mL (≈ 0.0821 µM)
A549 (lung)
  IC50 A549: 0.03 µg/mL (≈ 0.0821 µM)
DU-145 (prostate)
  IC50 DU145: 0.04 µg/mL (≈ 0.109 µM)
[2]
  IC50 values across the panel: ~0.04 µg/mL and 0.03 to 0.04 µg/mL
[2]; vs compound 1
  fold more active compared with compound 1: about 2 fold

## COc1ccc2c(CN3CCCC(CN)C3)cc3cc4c(cc3c2c1)OCO4.Cl.Cl (racemic) [Compound 7]
KB (nasopharyngeal)
  IC50 KB: 0.33 µg/mL
[1]
  IC50 KBvin: 0.38 µg/mL
A549 (lung)
  IC50 A549: 0.28 µg/mL
DU-145 (prostate)
  IC50 DU145: 0.37 µg/mL

## COc1ccc2c(CN3CCC(N)CC3)cc3cc4c(cc3c2c1)OCO4.Cl.Cl [Compound 12]
KB (nasopharyngeal)
  IC50 KB: 0.24 µg/mL
[1]
  IC50 KBvin: 0.29 µg/mL
A549 (lung)
  IC50 A549: 0.16 µg/mL
DU-145 (prostate)
  IC50 DU145: 0.34 µg/mL

## COC(=O)C1CCCN(Cc2cc3cc4c(cc3c3cc(OC)ccc23)OCO4)C1 (stereo not drawn) [Compound 19]
KB (nasopharyngeal)
  IC50 KB: 0.53 µg/mL (≈ 1.3 µM)
[1]
  IC50 KBvin: 0.58 µg/mL (≈ 1.42 µM)
A549 (lung)
  IC50 A549: 0.53 µg/mL (≈ 1.3 µM)
DU-145 (prostate)
  IC50 DU145: 0.61 µg/mL (≈ 1.5 µM)

## COc1ccc2c(CN3CCC(C(F)(F)F)CC3)cc3cc4c(cc3c2c1)OCO4 [Compound 13]
KB (nasopharyngeal)
  IC50 KB: 3.88 µg/mL (≈ 9.3 µM)
[1]
  IC50 KBvin: 3.12 µg/mL (≈ 7.47 µM)
A549 (lung)
  IC50 A549: 2.74 µg/mL (≈ 6.56 µM)
DU-145 (prostate)
  IC50 DU145: 5.24 µg/mL (≈ 12.6 µM)
